Test results as given in PubChem BioAssay AID651650 (Sanford-Burnham Center for Chemical Genomics, 2012).
Calls of active or inactive are those of the source.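 The calls were made as follows: active = mean IC50 below 20 µM in each of the two panels, so potent in both; inactive = the rest.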

Biological target: Neuropilin-1 (Homo sapiens) (UniProt O14786)
Assay: NRP-1 b1b2 CendR peptide binding inhibitors, dose response, biochemical, FP and AlphaScreen panel (AID 651650)
Details: NRP-1 b1b2 / RPARPAR peptide binding, FP or AlphaScreen
[1] = AlphaScreen, run 1, individual panel run IC50
[2] = FP, run 1, individual panel run IC50
[3] = FP, run 2, individual panel run IC50

Chain of Neuropilin-1 (Homo sapiens) (O14786 whole entry, looked up): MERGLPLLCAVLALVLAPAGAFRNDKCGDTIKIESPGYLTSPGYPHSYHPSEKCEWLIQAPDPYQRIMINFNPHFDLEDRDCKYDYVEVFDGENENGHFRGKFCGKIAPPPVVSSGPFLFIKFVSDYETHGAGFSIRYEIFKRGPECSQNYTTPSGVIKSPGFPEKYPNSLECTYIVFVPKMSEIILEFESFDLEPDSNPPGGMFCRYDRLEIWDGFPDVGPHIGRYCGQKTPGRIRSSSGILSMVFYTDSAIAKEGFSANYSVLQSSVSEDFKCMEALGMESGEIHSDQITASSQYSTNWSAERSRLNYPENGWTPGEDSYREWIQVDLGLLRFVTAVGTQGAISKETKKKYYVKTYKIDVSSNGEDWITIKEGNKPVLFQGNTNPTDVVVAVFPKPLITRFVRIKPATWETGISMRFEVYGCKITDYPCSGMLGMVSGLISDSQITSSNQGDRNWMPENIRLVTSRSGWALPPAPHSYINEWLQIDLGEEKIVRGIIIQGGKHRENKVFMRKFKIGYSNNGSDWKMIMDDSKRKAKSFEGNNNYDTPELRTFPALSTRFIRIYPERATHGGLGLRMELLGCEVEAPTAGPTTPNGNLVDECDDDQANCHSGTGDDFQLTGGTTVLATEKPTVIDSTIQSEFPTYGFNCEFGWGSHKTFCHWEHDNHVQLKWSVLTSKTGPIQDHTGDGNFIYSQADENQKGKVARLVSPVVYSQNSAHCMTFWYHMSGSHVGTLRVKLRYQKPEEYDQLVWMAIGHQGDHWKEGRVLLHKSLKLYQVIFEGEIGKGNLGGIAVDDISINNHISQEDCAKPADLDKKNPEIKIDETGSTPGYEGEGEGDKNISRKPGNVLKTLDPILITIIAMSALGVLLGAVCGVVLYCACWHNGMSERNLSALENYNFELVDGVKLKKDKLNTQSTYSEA

SMILES	IC50 (AlphaScreen, mean of runs)	IC50 [1] [µM]	IC50 (FP, mean of runs)	IC50 [2] [µM]	IC50 [3] [µM]
CC1CCC(NC(=O)C2CCC(CNS(=O)(=O)c3cccc4cccnc34)CC2)CC1 (stereo not given)	> 100 µM (inactive)	> 100	> 95 µM (inactive)	> 95	> 95
Cn1c(=O)c2c(ncn2CC(COCc2ccccc2)OCc2ccccc2)n(C)c1=O (stereo not given)	> 100 µM (inactive)	> 100	> 95 µM (inactive)	> 95	> 95
Cc1nc(SCc2ccc(C(=O)O)cc2)nc2c1CCCC2	> 100 µM (inactive)	> 100	> 95 µM (inactive)	> 95	> 95
CCOC(=O)C1(Cc2cccc(F)c2)CCN(Cc2ccon2)CC1	9.02 µM	9.02	> 95 µM (inactive)	> 95	> 95
COC(=O)C1=C(c2ccc(F)cc2OCc2ccccc2)C[C@@H]2CC[C@H]1N2C(=O)NCCNC(C)=O	9.37 µM	9.37	> 95 µM (inactive)	> 95	> 95
O=C(O)C1CCN(C(=O)c2ccc(Cl)cc2)CC1	> 100 µM (inactive)	> 100	> 95 µM (inactive)	> 95	> 95
CC(C)OC(=O)CSc1nnc(-c2ccccn2)n1-c1ccccc1	> 100 µM (inactive)	> 100	> 95 µM (inactive)	> 95	> 95
CCn1c(SCC(=O)c2ccccc2)nnc1-c1cccs1	inactive	95.3	> 95 µM (inactive)	> 95	> 95
COc1cc(C(=O)OCCCOC(=O)c2cc(OC)c(OC)c(OC)c2)cc(OC)c1OC	> 100 µM (inactive)	> 100	> 95 µM (inactive)	> 95	> 95
CCOc1ccc(N2C(=O)CC(N3CCN(c4ccc(Cl)cc4)CC3)C2=O)cc1 (stereo not given)	inactive	22.2	> 95 µM (inactive)	> 95	> 95
CC(C)(C)c1nc(SCC(=O)NCc2ccco2)c2ccccc2n1	inactive	28	> 95 µM (inactive)	> 95	> 95
Cc1ccc(C(=O)OCC(=O)c2ccc(Cl)s2)s1	> 100 µM (inactive)	> 100	> 95 µM (inactive)	> 95	> 95
CCc1ccccc1NC(=O)c1ccccc1N1C(=O)C2C3C=CC(C3)C2C1=O (stereo not given)	inactive	96.8	> 95 µM (inactive)	> 95	> 95
CCn1c(=O)c(C(=O)NCCNCCO)c(O)c2ccccc21	> 100 µM (inactive)	> 100	> 95 µM (inactive)	> 95	> 95
CC#CCN(Cc1ccco1)C(=O)C1CCC(=O)N(Cc2ccccc2F)C1 (stereo not given)	> 100 µM (inactive)	> 100	> 95 µM (inactive)	> 95	> 95
O=C(CSc1nnc(CNC(=O)C23CC4CC(CC(C4)C2)C3)n1-c1ccccc1)Nc1ccc(F)cc1	> 100 µM (inactive)	> 100	> 95 µM (inactive)	> 95	> 95
Cc1ccc(NC(=O)c2ccc3c(c2)S(=O)(=O)c2ccccc2C3=O)cc1S(=O)(=O)N1CCOCC1	> 100 µM (inactive)	> 100	> 95 µM (inactive)	> 95	> 95
N/C(CSc1ccc(Cl)cc1)=N\S(=O)(=O)c1ccc(Cl)cc1	> 100 µM (inactive)	> 100	> 95 µM (inactive)	> 95	> 95
Cc1ccc2cc(CN(c3ccccc3C)S(=O)(=O)c3ccccc3)c(=O)[nH]c2c1	> 100 µM (inactive)	> 100	> 95 µM (inactive)	> 95	> 95
O=c1c2cn[nH]c2nc(SCc2ccccc2F)n1-c1ccc(Br)cc1	> 100 µM (inactive)	> 100	> 95 µM (inactive)	> 95	> 95
CC(Nc1ccc2ccccc2c1)C(=O)N/N=C/c1ccncc1 (stereo not given)	> 100 µM (inactive)	> 100	> 95 µM (inactive)	> 95	> 95
Cc1cc(C)n2c(Nc3ccc4c(c3)OCCO4)c(-c3ccccn3)nc2n1	> 100 µM (inactive)	> 100	> 95 µM (inactive)	> 95	> 95
Cn1cccc1C1Nc2ccccc2NC2=C1C(=O)CC(C)(C)C2 (stereo not given)	> 100 µM (inactive)	> 100	> 95 µM (inactive)	> 95	> 95

SMILES	IC50 (AlphaScreen, mean of runs)	IC50 [1] [µM]	IC50 (FP, mean of runs)	IC50 [2] [µM]	IC50 [3] [µM]
CCN(C[C@H]1N[C@@](CC)(C(=O)OC)[C@H]2C(=O)N(C)C(=O)[C@@H]12)S(=O)(=O)c1ccc(OC)cc1	> 100 µM (inactive)	> 100	> 95 µM (inactive)	> 95	> 95
C=C1CCN(C(C(=O)OC)C(C)C)S(=O)(=O)c2ccc(F)cc21 (stereo not given)	> 100 µM (inactive)	> 100	> 95 µM (inactive)	> 95	> 95
Nc1cc(S(=O)(=O)O)cc([N+](=O)[O-])c1O	4.28 µM	4.28	> 95 µM (inactive)	> 95	> 95
COc1ccc(CCN=C2SCC(=O)N2Cc2ccccc2)cc1OC	> 100 µM (inactive)	> 100	> 95 µM (inactive)	> 95	> 95
CC(=O)Nc1ccc(Oc2cc(C#N)c(C#N)cc2N2CCOCC2)cc1	> 100 µM (inactive)	> 100	> 95 µM (inactive)	> 95	> 95
Cc1cc(NC(=O)CCC(=O)NNC(=O)c2ccc(C(C)(C)C)cc2)no1	8.63 µM	8.63	> 95 µM (inactive)	> 95	> 95
CCC(=NCCc1ccccc1)c1c(O)n(C2CCCCC2)c(=O)[nH]c1=O	> 100 µM (inactive)	> 100	> 95 µM (inactive)	> 95	> 95
Cc1cc2cc(CNC(=O)c3ccc(S(=O)(=O)N4CCOCC4)cc3)ccc2n1C	> 100 µM (inactive)	> 100	> 95 µM (inactive)	> 95	> 95
CN1C[C@H](CO)C=C2c3cccc4[nH]cc(c34)C[C@H]21	14.4 µM	14.4	> 95 µM (inactive)	> 95	> 95
COc1cc2c(cc1OC)C(Nc1ccc(S(N)(=O)=O)cc1)=NC(C)(C)C2	inactive	51.8	> 95 µM (inactive)	> 95	> 95
O=[N+]([O-])c1ccc(Cc2ccncc2)cc1	> 100 µM (inactive)	> 100	> 95 µM (inactive)	> 95	> 95
Fc1cc(Cl)ccc1Nc1nc(NCc2ccccc2)nc2ccsc12	> 100 µM (inactive)	> 100	> 95 µM (inactive)	> 95	> 95
O=C(/C=C/c1ccccc1)c1ccccn1	> 100 µM (inactive)	> 100	> 95 µM (inactive)	> 95	> 95
Cc1ccc(NC=C(S(=O)(=O)c2ccccc2)S(=O)(=O)c2ccccc2)cc1	> 100 µM (inactive)	> 100	> 95 µM (inactive)	> 95	> 95
C=C(C)C1CC=C(C)/C(=N\NC(=O)CNc2ccccc2OC)C1 (stereo not given)	> 100 µM (inactive)	> 100	> 95 µM (inactive)	> 95	> 95
Cc1onc(-c2ccc(Cl)cc2Cl)c1-c1csc(COc2ccccc2)n1	inactive	59.1	> 95 µM (inactive)	> 95	> 95
O=C(O)c1ccc(C(=O)Nc2cccc3ccccc23)c(C(=O)O)c1	inactive	49.3	> 95 µM (inactive)	> 95	> 95
O=C(Nc1ccc(F)cc1)c1cc(S(=O)(=O)Nc2ccc(F)cc2)cs1	> 100 µM (inactive)	> 100	> 95 µM (inactive)	> 95	> 95
CCc1ccc(C2CC(=O)N(c3cccc(F)c3)C3=C2C(=O)OC3)cc1 (stereo not given)	> 100 µM (inactive)	> 100	> 95 µM (inactive)	> 95	> 95
CC(C)(C)OC(=O)N1CCN(C(=O)c2[nH]cnc2C(=O)NCc2ccccc2)CC1	> 100 µM (inactive)	> 100	> 95 µM (inactive)	> 95	> 95
CCC1C2Cc3ccc(O)cc3C1(CC)CCN2C (stereo not given)	> 100 µM (inactive)	> 100	> 95 µM (inactive)	> 95	> 95
CC(=O)Oc1cc2c(c3ccccc13)CCC2=O	> 100 µM (inactive)	> 100	> 95 µM (inactive)	> 95	> 95
